The values that follow come from patent publication US20060264419A1 (priority 2003, published 2006).

This test addresses 5-HT2A receptors (Rattus norvegicus, UniProt P14842). Kind of test: in-vitro affinity to 5-HT2A receptors, displacement of [3H]ketanserine (Example A1). In kind it is binding. The settings on record: read-out: HT2A IC50. An excerpt:
The 5-HT2A receptors are exposed both to [^3H]ketanserine (a substance which is known for its affinity to the receptor) and also to the test compound. The decrease in the affinity of [^3H]ketanserine to the receptor is an indication of the affinity of the test substance to the 5-HT2A receptor.
On the technique in general: In a radioligand displacement assay an active substance lowers the binding of a labelled ligand.

5-HT2A receptors, sequence (P14842 whole entry): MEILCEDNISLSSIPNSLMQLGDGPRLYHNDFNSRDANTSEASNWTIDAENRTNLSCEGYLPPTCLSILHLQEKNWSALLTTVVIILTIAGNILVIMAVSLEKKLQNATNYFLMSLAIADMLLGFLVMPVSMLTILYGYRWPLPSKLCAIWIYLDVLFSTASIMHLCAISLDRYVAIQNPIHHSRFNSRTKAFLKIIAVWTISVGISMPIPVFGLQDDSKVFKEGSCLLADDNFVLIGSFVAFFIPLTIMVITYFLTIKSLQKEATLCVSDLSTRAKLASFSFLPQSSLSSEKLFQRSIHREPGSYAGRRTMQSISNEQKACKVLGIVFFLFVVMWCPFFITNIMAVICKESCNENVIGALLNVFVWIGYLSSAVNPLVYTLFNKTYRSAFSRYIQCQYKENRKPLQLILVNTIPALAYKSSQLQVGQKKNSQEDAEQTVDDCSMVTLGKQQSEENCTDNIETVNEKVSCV

Broadly, the IC50 is the point on the concentration scale where inhibition reaches its midpoint. Regarding `OCc1cnn(-c2ccc(-c3ccc(F)cc3)cc2)c1-c1cccc(Cl)c1` [Example 992, [5-(3-Chlorophenyl)-1-(4′-fluoro-biphenyl-4-yl)-1H-pyrazol-4-yl]methanol], the IC50 was found to be 140 nM.

For the compound `CN1CCN(Cc2cnn(-c3ccc(-c4cccc(C#N)c4)cc3)c2-c2ccccc2F)CC1` [Example 993, 4′-[5-(2-Fluorophenyl)-4-(4-methylpiperazin-1-ylmethyl)pyrazol-1-yl]biphenyl-3-carbonitrile], the IC50 was determined as 140 nM.

Take `Cc1ccc(-c2c(CN3CCN(C)CC3)cnn2-c2ccc(-c3ccc(F)cc3)cc2)cc1` [Example 994, 1-[1-(4′-Fluorobiphenyl-4-yl)-5-p-tolyl-1H-pyrazol-4-ylmethyl]-4-methylpiperazine]: the IC50 was determined as 140 nM.

For `CN1CCC(N(C)Cc2cnn(-c3ccc(-c4ccccc4)cc3)c2-c2ccccc2F)CC1` [Example 995, [1-Biphenyl-4-yl-5-(2-fluorophenyl)-1H-pyrazol-4-ylmethyl]methyl-(1-methylpiperidin-4-yl)amine], the IC50 came out at 160 nM.

Consider `Fc1ccccc1-c1c(CN2CC3CC2CO3)cnn1-c1ccc(-c2ccccc2)cc1` (stereo not drawn) [Example 996, 5-[1-Biphenyl-4-yl-5-(2-fluorophenyl)-1H-pyrazol-4-ylmethyl]-2-oxa-5-azabicyclo-[2.2.1]heptane], for which the IC50 was determined as 160 nM.

Regarding `Fc1ccccc1-c1c(CN2CC=CCC2)cnn1-c1ccc(-c2ccccc2)cc1` [Example 998, 1-[1-Biphenyl-4-yl-5-(2-fluorophenyl)-1H-pyrazol-4-ylmethyl]-1,2,3,6-tetrahydro-pyridine], the IC50 came out at 170 nM.

Turning to `CCOC(=O)N1CCC(N(C)Cc2cnn(-c3ccc(-c4ccccc4)cc3)c2-c2ccccc2F)CC1` [Example 999, Ethyl 4-{[1-biphenyl-4-yl-5-(2-fluorophenyl)-1H-pyrazol-4-ylmethyl]methylamino}piperidine-1-carboxylate], the half-maximal inhibitory concentration (IC50) is 170 nM.

For the compound `CN1CCN(Cc2cnn(-c3ccc(-c4cccnc4)cc3)c2-c2ccccc2F)CC1` [Example 1000, 1-[5-(2-Fluorophenyl)-1-(4-pyridin-3-ylphenyl)-1H-pyrazol-4-ylmethyl]-4-methylpiperazine], the IC50 was found to be 170 nM.

Regarding `Fc1ccccc1-c1c(CNCCCn2ccnc2)cnn1-c1ccc(-c2ccccc2)cc1` [Example 1001, [1-Biphenyl-4-yl-5-(2-fluorophenyl)-1H-pyrazol-4-ylmethyl]-(3-imidazol-1-ylpropyl)amine], the IC50 came out at 170 nM.

With `Fc1ccccc1-c1c(CNCCc2c[nH]cn2)cnn1-c1ccc(-c2ccccc2)cc1` [Example 1002, [1-Biphenyl-4-yl-5-(2-fluorophenyl)-1H-pyrazol-4-ylmethyl]-[2-(1H-imidazol-4-yl)-ethyl]amine], the IC50 is 170 nM.

As to `Fc1ccccc1-c1c(CNCc2cccnc2)cnn1-c1ccc(-c2ccccc2)cc1` [Example 1004, [1-Biphenyl-4-yl-5-(2-fluorophenyl)-1H-pyrazol-4-ylmethyl]pyridin-3-ylmethylamine], the concentration for half-maximal inhibition (IC50) stood at 180 nM.

As to `Fc1ccc(F)c(-c2ccc(-n3ncc(CNc4cc[nH]n4)c3-c3ccccc3F)cc2)c1` [Example 1005, [1-(2′,5′-Difluorobiphenyl-4-yl)-5-(2-fluoro-phenyl)-1H-pyrazol-4-ylmethyl]-(1H-pyrazol-3-yl)amine], the IC50 turned out to be 180 nM.

For the compound `Nc1ccncc1NCc1cnn(-c2ccc(-c3ccccc3)cc2)c1-c1ccccc1F` [Example 1006, N3-[1-Biphenyl-4-yl-5-(2-fluoro-phenyl)-1H-pyrazol-4-ylmethyl]pyridine-3,4-diamine], the IC50 amounted to 180 nM.

As for `CN1CCN(Cc2cnn(-c3ccc(-c4ccc(F)cc4)cc3)c2-c2ccc(Cl)c(Cl)c2)CC1` [Example 1007, 1-[5-(3,4-Dichlorophenyl)-1-(4′-fluoro-biphenyl-4-yl)-1H-pyrazol-4-ylmethyl]-4-methyl-piperazine], the IC50 came to 190 nM.

With `CN(C)C1CCN(Cc2cnn(-c3ccc(-c4ccccc4)cc3)c2-c2ccccc2F)CC1` [Example 1008, {1-[1-Biphenyl-4-yl-5-(2-fluorophenyl)-1H-pyrazol-4-ylmethyl]piperidin-4-yl}dimethyl-amine], the IC50 amounted to 200 nM.

Consider `c1ccc(-c2ccc(-n3ncc(CN4CCNCC4)c3-c3ccccn3)cc2)cc1` [Example 1009, 1-(1-Biphenyl-4-yl-5-pyridin-2-yl-1H-pyrazol-4-ylmethyl)piperazine], for which the IC50 came out at 200 nM.

As to `CN(C)C(=O)CNCc1cnn(-c2ccc(-c3ccccc3)cc2)c1-c1ccccc1F` [Example 1010, 2-{[1-Biphenyl-4-yl-5-(2-fluorophenyl)-1H-pyrazol-4-ylmethyl]amino}-N,N-dimethyl-acetamide], the IC50 is 200 nM.

`CCN1CCN(Cc2cnn(-c3ccc(-c4ccc(F)cc4)cc3)c2-c2ccc(OC)cc2)CC1` [Example 1011, 1-Ethyl-4-[1-(4′-fluorobiphenyl-4-yl)-5-(4-methoxyphenyl)-1H-pyrazol-4-ylmethyl]-piperazine]: the IC50 stood at 200 nM.

On to `O=c1ccccn1Cc1cnn(-c2ccc(-c3ccccc3)cc2)c1-c1ccccc1F` [Example 1012, 1-[1-Biphenyl-4-yl-5-(2-fluorophenyl)-1H-pyrazol-4-ylmethyl]-1H-pyridin-2-one], for which the IC50 came out at 200 nM.

Consider `COC(=O)CCNCc1cnn(-c2ccc(-c3ccccc3)cc2)c1-c1ccccc1F` [Example 1014, Methyl 3-{[1-biphenyl-4-yl-5-(2-fluoro-phenyl)-1H-pyrazol-4-ylmethyl]amino}propionate], for which the IC50 is 210 nM.

Turning to `Cc1nn(-c2ccccc2)c(C)c1CN1CCN(C(=O)C(CCC(=O)O)N2C(=O)c3ccccc3C2=O)CC1` (stereo not drawn) [Example 1015], the IC50 stood at 220 nM.

Turning to `Cc1cccc(-c2ccc(-n3ncc(CN4CCN(C)CC4)c3-c3ccccc3F)cc2)c1` [Example 1017, 1-[5-(2-Fluorophenyl)-1-(3′-methylbiphenyl-4-yl)-1H-pyrazol-4-ylmethyl]-4-methylpiperazine], the half-inhibitory concentration (IC50) turned out to be 220 nM.

`CCNC(=O)CN1CCN(Cc2cnn(-c3ccc(-c4ccccc4)cc3)c2-c2ccccc2F)CC1` [Example 1018, 2-{4-[1-Biphenyl-4-yl-5-(2-fluoro-phenyl)-1H-pyrazol-4-ylmethyl]piperazin-1-yl}-N-ethyl-acetamide]: the IC50 amounted to 230 nM.

For the compound `Cc1ccccc1-c1ccc(-n2ncc(CN3CCN(C)CC3)c2-c2ccccc2F)cc1` [Example 1020, 1-[5-(2-Fluorophenyl)-1-(2′-methyl-biphenyl-4-yl)-1H-pyrazol-4-ylmethyl]-4-methylpiperazine], the IC50 is 230 nM.

Turning to `Cc1cc(CNCc2cnn(-c3ccc(-c4ccccc4)cc3)c2-c2ccccc2)no1` [Example 1023, (1-Biphenyl-4-yl-5-phenyl-1H-pyrazol-4-yl-methyl)-(5-methylisoxazol-3-ylmethyl)amine], the IC50 came out at 240 nM.

For `CCN(CC)CC1CCCCN1Cc1cnn(-c2ccc(-c3ccccc3)cc2)c1-c1ccccc1F` (stereo not drawn) [Example 1028, {1-[1-Biphenyl-4-yl-5-(2-fluorophenyl)-1H-pyrazol-4-ylmethyl]piperidin-2-ylmethyl}-diethylamine], the IC50 amounted to 270 nM.

Regarding `O=C(NCCO)C1CCN(Cc2cnn(-c3ccc(-c4ccccc4)cc3)c2-c2ccccc2F)CC1` [Example 1030, N-(2-Hydroxyethyl)-1-[1-biphenyl-4-yl-5-(2-fluorophenyl)-1H-pyrazol-4-ylmethyl]piperidine-4-carboxamide], the IC50 turned out to be 270 nM.

`Fc1ccccc1-c1c(CN2CCN3CCc4ccccc4C3C2)cnn1-c1ccc(-c2ccccc2)cc1` (stereo not drawn) [Example 1031, 2-[1-Biphenyl-4-yl-5-(2-fluorophenyl)-1H-pyrazol-4-ylmethyl]-1,3,4,6,7,11b-hexahydro-2H-pyrazino[2,1-a]isoquinoline]: the IC50 worked out at 280 nM.

Consider `OCCN1CCN(Cc2cnn(-c3ccc(-c4ccccc4)cc3)c2-c2ccccc2F)CC1` [Example 1032, 2-{4-[1-Biphenyl-4-yl-5-(2-fluoro-phenyl)-1H-pyrazol-4-ylmethyl]piperazin-1-yl}ethanol], for which the IC50 came to 280 nM.

Turning to `CCC1(O)CCN(Cc2cnn(-c3ccc(-c4ccccc4)cc3)c2-c2ccccc2F)CC1` [Example 1033, 1-[1-Biphenyl-4-yl-5-(2-fluorophenyl)-1H-pyrazol-4-ylmethyl]-4-ethylpiperidin-4-ol], the 50% inhibitory concentration (IC50) is 280 nM.

For the compound `N#CCNCc1cnn(-c2ccc(-c3ccccc3)cc2)c1-c1ccccc1F` [Example 1034, {[1-Biphenyl-4-yl-5-(2-fluorophenyl)-1H-pyrazol-4-ylmethyl]amino}acetonitrile], the IC50 was found to be 280 nM.

`Fc1ccccc1-c1c(CNC2CCN(Cc3ccccc3)C2)cnn1-c1ccc(-c2ccccc2)cc1` (stereo not drawn) [Example 1036, (1-Benzylpyrrolidin-3-yl)-[1-biphenyl-4-yl-5-(2-fluorophenyl)-1H-pyrazol-4-ylmethyl]amine]: the 50% inhibitory concentration (IC50) amounted to 310 nM.

`O=C(CN1CCN(Cc2cnn(-c3ccc(-c4ccccc4)cc3)c2-c2ccccc2F)CC1)N1CCCC1` [Example 1038, 2-{4-[1-Biphenyl-4-yl-5-(2-fluoro-phenyl)-1H-pyrazol-4-ylmethyl]piperazin-1-yl}-1-pyrrolidin-1-ylethanone]: the IC50 worked out at 311 nM.

In the case of `CCN(Cc1ccccc1)Cc1cnn(-c2ccc(-c3ccccc3)cc2)c1-c1ccccc1F` [Example 1039, Benzyl-[1-biphenyl-4-yl-5-(2-fluoro-phenyl)-1H-pyrazol-4-ylmethyl]ethylamine], the 50% inhibitory concentration (IC50) was found to be 320 nM.

With `COc1ccc(-c2c(CN3CCN(C(C)C)CC3)cnn2-c2ccc(-c3ccc(F)cc3)cc2)cc1` [Example 1040, 1-[1-(4′-Fluorobiphenyl-4-yl)-5-(4-methoxy-phenyl)-1H-pyrazol-4-ylmethyl]-4-isopropyl-piperazine], the IC50 turned out to be 320 nM.

Consider `Fc1ccccc1-c1c(CNC2C3CNCC32)cnn1-c1ccc(-c2ccccc2)cc1` (stereo not drawn) [Example 1041, (3-Azabicyclo[3.1.0]hex-6-yl)-[1-biphenyl-4-yl-5-(2-fluorophenyl)-1H-pyrazol-4-ylmethyl]-amine], for which the IC50 came out at 320 nM.
